Data published in ChEMBL document CHEMBL5131473, “One-pot synthesis of oxoaporphines as potent antitumor agents and investigation of their mechanisms of actions” (Eur J Med Chem, 2022).
The source made the active and inactive calls. The calls are words filed in the database; no cut-off is given here.

Columns and labels:
WI-38 [1] = experiment: Antiproliferative activity against human WI-38 cells assessed as cell growth inhibition measured after 48 hrs by MTT assay; assay type: functional, cell-based; settings: WI-38, 48 h
T-24 [2] = experiment: Antitumor activity against human T24 cells xenografted in BALB/c nude mouse assessed as reduction in tumor volume at 30 mg/kg, IG administered every 2 days for 14 days; assay type: functional; settings: time 14 day
[3] = Toxicity in BALB/C nude mouse xenografted with human T24 cells assessed as effect on lung at 30 mg/kg, IG administered every 2 days for 14 days by H and E staining based assay; assay type: organism-based, T-24; settings: in vivo, po, 336 h, time 14 day
MGC-803 = experiment: Antiproliferative activity against human MGC-803 cells assessed as cell growth inhibition measured after 48 hrs by MTT assay; assay type: functional, cell-based; settings: MGC-803, 48 h
T-24 [4] = experiment: Antitumor activity against human T24 cells xenografted in BALB/c nude mouse assessed as inhibition of tumor metastasis in liver at 30 mg/kg, IG administered every 2 days for 14 days; assay type: functional, organism-based; settings: time 2.0 day
[5] = Toxicity in BALB/C nude mouse xenografted with human T24 cells assessed as effect on kidney at 30 mg/kg, IG administered every 2 days for 14 days by H and E staining based assay; assay type: organism-based, T-24; settings: in vivo, po, 336 h, time 14 day
T-24 [6] = experiment: Antitumor activity against human T24 cells xenografted in BALB/c nude mouse assessed as tumor growth inhibition at 30 mg/kg, IG administered every 2 days for 14 days; assay type: functional; parameters: scale not given: the % may be the effect or the level left; settings: time 14 day
T-24 [7] = experiment: Induction of mitochondrial mediated apoptosis in human T24 cells assessed as upregulation of apaf-1 expression at 0.5 to 1 uM incubated for 24 hrs by Western blotting analysis; assay type: functional, cell-based; settings: dose 0.5-1 µM
T-24 [8] = experiment: Cytotoxicity against human T24 cells assessed as decrease in cell viability measured after 48 hrs by MTT assay; assay type: toxicity, cell-based; settings: t-24, 48 h, 20 µM, DDE = dose-dependent effect
T-24 [9] = experiment: Induction of apoptosis in human T24 cells assessed as necrotic cells at 2 uM incubated for 24 hrs by Annexin-V/PI staining based flow cytometry analysis (reference value: 1.92 %); assay type: functional
T-24 [10] = experiment: Antiproliferative activity against human T24 cells assessed as cell growth inhibition measured after 48 hrs by MTT assay; assay type: functional, cell-based; settings: T-24, 48 h
T-24 [11] = experiment: Induction of apoptosis in human T24 cells assessed as early apoptotic cells at 2 uM incubated for 24 hrs by Annexin-V/PI staining based flow cytometry analysis (reference value: 3.27 %); assay type: functional
[12] = Toxicity in BALB/C nude mouse xenografted with human T24 cells assessed as effect on liver at 30 mg/kg, IG administered every 2 days for 14 days by H and E staining based assay; assay type: organism-based, T-24; settings: in vivo, po, 336 h, time 14 day
T-24 [13] = experiment: Induction of apoptosis in human T24 cells assessed as necrotic cells at 1 uM incubated for 24 hrs by Annexin-V/PI staining based flow cytometry analysis (reference value: 1.92 %); assay type: functional
[14] = Toxicity in BALB/C nude mouse xenografted with human T24 cells assessed as effect on heart at 30 mg/kg, IG administered every 2 days for 14 days by H and E staining based assay; assay type: organism-based, T-24; settings: in vivo, po, 336 h, time 14 day
HepG2 = experiment: Antiproliferative activity against human HepG2 cells assessed as cell growth inhibition measured after 48 hrs by MTT assay; assay type: functional, cell-based; settings: HepG2, 48 h
WI-38 [15] = experiment: Cytotoxicity against human WI-38 cells by MTT assay; assay type: toxicity, cell-based
T-24 [16] = experiment: Induction of apoptosis in human T24 cells assessed as viable cells at 2 uM incubated for 24 hrs by Annexin-V/PI staining based flow cytometry analysis (reference value: 94.3 %); assay type: functional; settings: read-out: Activity
[17] = Toxicity in BALB/C nude mouse xenografted with human T24 cells assessed as decrease in body weight at 30 mg/kg, IG administered every 2 days for 14 days; assay type: organism-based, T-24; settings: in vivo, po, 336 h, time 14 day
T-24 [18] = experiment: Induction of Ca2+ production in human T24 cells assessed as increase in intracellular Ca2+ concentration at 0.5 uM by Fluo3-AM staining based fluorescence microscopic method; assay type: functional, cell-based
WI-38 [19] = experiment: Induction of apoptosis in human WI-38 cells at IC50; assay type: toxicity, cell-based
SK-OV-3 = experiment: Antiproliferative activity against human SK-OV-3 cells assessed as cell growth inhibition measured after 48 hrs by MTT assay; assay type: functional, cell-based; settings: SK-OV-3, 48 h
T-24 [20] = experiment: Induction of apoptosis in human T24 cells assessed as late apoptotic cells at 2 uM incubated for 24 hrs by Annexin-V/PI staining based flow cytometry analysis (reference value: 0.543 %); assay type: functional
T-24 [21] = experiment: Induction of apoptosis in human T24 cells assessed as increase in caspase 3 activity at 10 uM (Rvb= 3.1%); assay type: functional
T-24 [22] = experiment: Induction of mitochondrial membrane potential dysfunction in human T24 cells assessed as depolarised cells at 10 uM incubated for 24 hrs by JC-1 staining based flow cytometry (reference value: 6.20%); assay type: functional
T-24 [23] = experiment: Induction of cell cycle arrest in human T24 cells assessed as accumulation of cells at G2/M phase at 15 uM incubated for 24 hrs by propidium iodide/RNase A staining based flow cytometry analysis (reference value: 5.82 %); assay type: functional
T-24 [24] = experiment: Induction of cell cycle arrest in human T24 cells assessed as accumulation of cells at S phase at 10 uM incubated for 24 hrs by propidium iodide/RNase A staining based flow cytometry analysis (reference value: 42.47 %); assay type: functional
T-24 [25] = experiment: Induction of cell cycle arrest in human T24 cells assessed as accumulation of cells at G1 phase at 15 uM incubated for 24 hrs by propidium iodide/RNase A staining based flow cytometry analysis (reference value: 51.71 %); assay type: functional
T-24 [26] = experiment: Induction of apoptosis in human T24 cells assessed as early apoptotic cells at 15 uM incubated for 24 hrs by Annexin-V/PI staining based flow cytometry analysis (reference value: 3.27 %); assay type: functional
T-24 [27] = experiment: Induction of mitochondrial membrane potential dysfunction in human T24 cells assessed as depolarised cells at 2 uM incubated for 24 hrs by JC-1 staining based flow cytometry (reference value: 6.20%); assay type: functional
T-24 [28] = experiment: Induction of mitochondrial membrane potential dysfunction in human T24 cells assessed as depolarised cells at 4 uM incubated for 24 hrs by JC-1 staining based flow cytometry (reference value: 6.20%); assay type: functional
T-24 [29] = experiment: Induction of apoptosis in human T24 cells assessed as viable cells at 4 uM incubated for 24 hrs by Annexin-V/PI staining based flow cytometry analysis (reference value: 94.3 %); assay type: functional; settings: read-out: Activity
T-24 [30] = experiment: Induction of mitochondrial membrane potential dysfunction in human T24 cells assessed as mitochondrial fragment condensation at 2 to 4 uM by mito-tracker green dye based fluorescence microscopy; assay type: functional, cell-based; settings: dose 2-4 µM
T-24 [31] = experiment: Induction of mitochondrial membrane potential dysfunction in human T24 cells assessed as change in morphology at 2 to 4 uM by Mitotracker green dye based fluorescence microscopy; assay type: functional, cell-based; settings: dose 2-4 µM
T-24 [32] = experiment: Induction of mitochondrial membrane potential dysfunction in human T24 cells assessed as nuclear condensation at 2 to 4 uM by mito-tracker green dye based fluorescence microscopy; assay type: functional, cell-based; settings: dose 2-4 µM
T-24 [33] = experiment: Induction of cell cycle arrest in human T24 cells assessed as accumulation of cells at G1 phase at 4 uM incubated for 24 hrs by propidium iodide/RNase A staining based flow cytometry analysis (reference value: 51.71 %); assay type: functional

Row | SMILES | IC50 (WI-38 [1]) [µM] | Activity (T-24 [2]) [mm3] | Activity [3] | IC50 (MGC-803) [µM] | Activity (T-24 [4]) | Activity [5] | Activity (T-24 [6]) [%] | Activity (T-24 [8]) | Activity (T-24 [9]) [%] | IC50 (T-24 [10]) [µM] | Activity (T-24 [11]) [%] | Activity [12] | Activity [14] | IC50 (HepG2) [µM] | Activity (WI-38 [15]) | viability at 2 µM (T-24 [16]) [%] | Activity [17] | Activity (WI-38 [19]) | IC50 (SK-OV-3) [µM] | Activity (T-24 [20]) [%] | further results
1 | O=C1c2ccccc2-c2ccc([N+](=O)[O-])c3ccnc1c23 | 14.8 | 605.28 | Non-Toxic | 1.1 | Active | Non-Toxic | 49.5 | Dde | 0.914 | 0.5 | 57.7 | Non-Toxic | Non-Toxic | 1.3 | Non-Toxic | 32.7 | Non-Toxic | Non-Toxic | 8.9 | 8.68 | Activity (T-24 [7]): Active; Activity (T-24 [13]): 1.57%; Activity (T-24 [18]): Active
2 | O=C1c2ccccc2-c2cccc3ccnc1c23 | 20.2 | 722.033 | Non-Toxic | 12.6 | Active | Non-Toxic | 40.8 | Dde | – | 9.5 | – | Non-Toxic | Non-Toxic | 12.3 | Non-Toxic | – | Non-Toxic | Non-Toxic | 37 | – | Activity (T-24 [21]): 19.9%; Activity (T-24 [22]): 11.7%; Activity (T-24 [23]): 22.69%; Activity (T-24 [24]): 54.86%; Activity (T-24 [25]): 31.02%; Activity (T-24 [26]): 32.9%
3 | O=C1c2cc([N+](=O)[O-])ccc2-c2ccc([N+](=O)[O-])c3ccnc1c23 | 20.4 | 846.52 | Non-Toxic | 2.3 | Active | Non-Toxic | 30.7 | Dde | 1.97 | 2 | 27.4 | Non-Toxic | Non-Toxic | 2.2 | Non-Toxic | 65.8 | Non-Toxic | Non-Toxic | 16 | 4.79 | Activity (T-24 [27]): 15.9%; Activity (T-24 [28]): 31.3%; viability at 4 µM (T-24 [29]): 59.4%; Activity (T-24 [30]): Active; Activity (T-24 [31]): Active; Activity (T-24 [32]): Active; Activity (T-24 [33]): 15.29%
